Experimental data: patent US20200078404A1, “COMBINATION OF A CELL THERAPY AND AN IMMUNOMODULATORY COMPOUND” (Juno Therapeutics, Inc., priority 2017, published 2020)

Columns and labels:
anti-BCMA CAR T cells [1] = assay: Proliferation and expansion of anti-BCMA CAR T cells stimulated with BCMA-conjugated beads; assay type: cell-based, human; details: 5 μM lenalidomide
Protocol: (§1) Cryofrozen anti-BCMA CAR T cells, produced substantially as described in Example 2 and formulated at a 1:1 ratio of CD4+ and CD8+ T cells, were thawed.
Total cell count, monitored at day 4 (FIG. 21E) and day 7 (FIG. 21F), was increased following stimulation of anti-BCMA CAR+ T cells with beads from a 50 μg/mL BCMA-conjugated bead composition, but not 5 μg/mL BCMA-conjugated bead composition, compared to the cells present at the time of initiation of the incubation (dashed line).
To further assess proliferation, the cells containing anti-BCMA CAR-expressing T cells were labeled with the proliferation marker dye CELLTRACE VIOLET (CTV; ThermoFisher Scientific, Waltham Mass.) in accordance with the manufacturer's protocol prior to incubation with the BCMA-conjugated beads. Proliferation was assessed by dye dilution using flow cytometry on cells that were stimulated with beads from the 50 μg/mL BCMA-conjugated bead composition.
Four days and seven days after addition of BCMA-conjugated beads, the incubated cells were stained with CD4 or CD8 and with an anti-EGFR antibody to determine the percentage of cells positive for EGFRt as a surrogate for CAR+ T cells. At the time of plating, 26% of the CD4+ cells expressed anti-BCMA CAR and 39% of the CD8+ cells expressed anti-BCMA CAR as determined by staining with BCMA-Fc. The percent of EGFRt+CD4+ T cells increased from about 26% at the initiation of the incubation to greater than 40% by day 4 (FIG. 21H) and greater than 60% by day 7 (FIG. 21I) when the cells were incubated in the presence of beads from a 50 μg/mL BCMA-conjugated bead composition. […] The extent of cell expansion was greatest when cells were incubated in the presence of beads from a 50 μg/mL BCMA-conjugated bead composition compared to beads from the 5 μg/mL BCMA-conjugated bead composition.

anti-BCMA CAR T cells [2] = assay: Cytokines of anti-BCMA CAR T cells stimulated with BCMA-conjugated beads (supernatant, intracellular); assay type: cell-based, human; details: 24 hours
Protocol: as §1
Twenty four hours after addition of BCMA-conjugated beads, the presence of TNF-α, IFNγ, and IL-2 in culture supernatants was assessed.
In a further exemplary study, two different anti-BCMA CAR T cell compositions were generated from different donors, each containing T cells expressing the same anti-BCMA CAR. The cells were thawed and incubated with beads (diameter about 4.5 μm) from a 5 μg/mL or 200 μg/mL BCMA-conjugated bead composition generated as described in Example 1. […] Twenty four hours after addition of BCMA-conjugated beads, IL-2 production by the anti-BCMA CAR+ T cells was assessed in culture supernatants.
The cells were gated on transduced, live CD3+ cells, and assessed by flow cytometry for intracellular cytokine accumulation of IFNγ and TNFα in CD4+ and CD8+ cells.

OPM-2 = details: read-out: sensitive to lenalidomide; cited from earlier work
anti-BCMA CAR+ T cells = assay: T cell markers and proliferation of anti-BCMA CAR+ T cells stimulated with BCMA-conjugated beads; assay type: cell-based, human
Protocol: B cell maturation antigen (BCMA) was conjugated to beads by covalently coupling a BCMA-Fc fusion polypeptide, containing soluble human BCMA fused at its C-terminus to an Fc region of IgG, to the surface of commercially available tosyl-activated magnetic beads (ThermoFisher, Waltham Mass.). The beads are superparamagnetic, non-porous, monodisperse, tosylactivated beads that covalently bind primary amino and sulfhydryl groups. Conjugation was performed using beads having a diameter of approximately 2.8 μm (designated M-280) or 4.5 μm (designated M-450).
Various concentrations of the BCMA-Fc fusion protein ranging from 5 μg to 200 μg were added to approximately 1 mL of tocylactivated beads (e.g. containing about 4×10^9 tocylactivated beads having a diameter of 2.8 μm or about 4×10^8 tocylactivated beads having a diameter of 4.5 μm). Covalent coupling was performed by overnight incubation at 37° C. in phosphate buffered solution (PBS) containing 0.1% human serum albumin (HSA). Beads were washed and resuspended in 1 mL PBS with 0.1% HSA. After conjugation, the bead concentration was determined using a Cellometer. In the examples below, the BCMA-conjugated beads used in various studies are referred to with reference either to the amount of BCMA-Fc antigen added per mL or the antigen concentration (μg/mL) during the conjugation, e.g. 5 μg or 5 μg/mL; 50 μg or 50 μg/mL; 200 μg or 200 μg/mL and so on.
Approximately 1.5×10^6 CAR+ T cells were added to wells of a 12-well plate and were incubated with beads from a 200 μg/ml BCMA-conjugated bead composition at a ratio of CAR+ T cell to BCMA-conjugated bead of 1:0.3, 1:1 or 1:3 (approximately 0.5×10^6, 1.5. 10^6, and 4.5×10^6 beads per well, respectively). As controls, 5 μg/mL anti-CD3 antibody was coated to wells (sub-optimal concentration for stimulation) or cells were seeded in the absence of any agent (no stimulation control). […]
In a further experiment, anti-BCMA CAR-T cell compositions produced substantially as described in Example 1 were plated in 96-well plates at a density of 5×10^5 cells per well. […]

K562-CD19 cells = details: 1-5000 nM lenalidomide, E:T 2.5:1, about 120 hours
anti-CD19 CAR+ T cells = assay: CD25 and PD-1 surface expression of anti-CD19 CAR+ T cells incubated with K562-CD19 cells; assay type: cell-based, human
Protocol: After 120 hours of culture, cells were isolated and assessed by flow cytometry for surface expression of CD25 or PD-1 in CD4+ or CD8+ T cell subsets.

With Nc1cccc2c1CN(C1CCC(=O)NC1=O)C2=O (stereo not shown) [lenalidomide, 3-(4-amino-1-oxo-1,3-dihydro-2H-isoindol-2-yl)piperidine-2,6-dione] the “total cell count (proliferation)” value (anti-BCMA CAR T cells [1]; 50 ug beads, day 7) was “small increase in proliferation”, the “proliferation by CTV dilution” value (anti-BCMA CAR T cells [1]; 50 μg/mL beads, day 4 but not day 7) was “slight delay in proliferation” and the “extent of CAR+ T cell expansion (% EGFRt+)” value (anti-BCMA CAR T cells [1]; day 4 and day 7) was “did not substantially impact the extent of CAR+ T cell expansion”. The “intracellular cytokine levels of IFNγ and TNFα” value (anti-BCMA CAR T cells [2]; 0.1 μM or 1 μM lenalidomide, 5, 50 or 200 μg/mL beads) was “increased by lenalidomide”, the IL-2 production (anti-BCMA CAR T cells [2]; 1 μM or 5 μM lenalidomide, 5 or 200 μg/mL BCMA beads, two donors) was “increased cytokine production” and the “BCMA-induced CAR+ T cell cytokine production (IFNγ, IL-2, TNF-α)” value (anti-BCMA CAR T cells [2]; 5 μM lenalidomide, 5 or 50 μg/mL BCMA beads) was “increased BCMA-induced CAR+ T cell cytokine production”. The IC50 (OPM-2) was 37.4 µM, the “expression level of Ikaros” value (anti-BCMA CAR+ T cells; 0.5 μM or 5 μM lenalidomide, 18 hours, all conditions) was “decreased” and the “proliferative capacity of T cells (CTV)” value (anti-BCMA CAR+ T cells; 5 μM lenalidomide, 200 μg BCMA beads, 1:1, three days) was “increased the proliferative capacity of T cells”. For the same compound, the “surface expression of CD25 in CD4+ and CD8+ T cells” value (anti-BCMA CAR+ T cells; 5 μM lenalidomide, BCMA-conjugated beads or anti-CD3) was “further increased the extent of surface expression of CD25”, the CAR-mediated cytolytic activity (K562-CD19 cells) was “reduced CAR-mediated cytolytic activity” and the “CD25 expression in CD4+ and CD8+ T cells” value (anti-CD19 CAR+ T cells; 1600 nM lenalidomide, E:T 2.5:1, 120 hours) was “higher levels of CD25 expression”. For the same compound, the “surface expression of PD-1 in CD4+ or CD8+ T cells” value (anti-CD19 CAR+ T cells; up to 1600 nM lenalidomide, 120 hours) was “No difference in surface expression of PD-1”.
